Patent US20110319411A1, “ISOINDOLINONE AND RELATED ANALOGS AS SIRTUIN MODULATORS” (Sirtis Pharmaceuticals, Inc., priority 2008, published 2011)

Molecular target: T1, SIRT1 (Homo sapiens, UniProt Q96EB6)
T1 construct: made in house; host or cells: E. coli BL21(DE3)
T1 sequence (Q96EB6 1-747): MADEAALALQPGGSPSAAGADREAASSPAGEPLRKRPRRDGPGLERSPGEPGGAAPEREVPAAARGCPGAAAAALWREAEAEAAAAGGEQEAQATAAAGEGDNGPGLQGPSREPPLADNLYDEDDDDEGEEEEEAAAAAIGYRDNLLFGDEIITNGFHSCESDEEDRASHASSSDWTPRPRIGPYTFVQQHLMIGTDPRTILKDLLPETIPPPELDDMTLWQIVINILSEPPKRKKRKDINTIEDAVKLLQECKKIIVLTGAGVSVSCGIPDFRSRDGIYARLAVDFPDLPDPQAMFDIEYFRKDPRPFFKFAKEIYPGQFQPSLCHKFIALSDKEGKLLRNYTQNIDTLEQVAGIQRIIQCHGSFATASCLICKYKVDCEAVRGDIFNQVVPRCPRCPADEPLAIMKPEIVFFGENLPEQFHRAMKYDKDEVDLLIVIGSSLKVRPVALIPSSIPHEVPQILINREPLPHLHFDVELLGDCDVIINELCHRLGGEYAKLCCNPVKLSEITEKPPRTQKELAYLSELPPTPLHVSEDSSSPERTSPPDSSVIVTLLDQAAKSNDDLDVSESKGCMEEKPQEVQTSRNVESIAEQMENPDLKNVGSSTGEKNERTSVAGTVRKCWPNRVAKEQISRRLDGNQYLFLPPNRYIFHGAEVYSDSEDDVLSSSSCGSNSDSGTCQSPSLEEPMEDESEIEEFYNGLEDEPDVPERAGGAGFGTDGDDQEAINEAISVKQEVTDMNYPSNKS
Assay: mass spectrometry based assay to identify modulators of SIRT1 activity
Assay type: biochemical
Details: 10 nM SIRT1, 0.5 μM peptide substrate, 120 μM βNAD+, 25 minutes at 25° C.; for Emax: 25 min, read-out: % FOLD ACT. (percent maximum fold activation)
Description: A mass spectrometry based assay was used to identify modulators of SIRT1 activity. The mass spectrometry based assay utilizes a peptide having 20 amino acid residues as follows: Ac-EE-K(biotin)-GQSTSSHSK(Ac)NleSTEG-K(5TMR)-EE-NH2 (SEQ ID NO: 1) wherein K(Ac) is an acetylated lysine residue and Nle is a norleucine. The peptide is labeled with the fluorophore 5TMR (excitation 540 nm/emission 580 nm) at the C-terminus. The sequence of the peptide substrate is based on p53 with several modifications. In addition, the methionine residue naturally present in the sequence was replaced with the norleucine because the methionine may be susceptible to oxidation during synthesis and purification.
The mass spectrometry assay is conducted as follows: 0.5 μM peptide substrate and 120 μM βNAD^+ is incubated with 10 nM SIRT1 for 25 minutes at 25° C. in a reaction buffer (50 mM Tris-acetate pH 8, 137 mM NaCl, 2.7 mM KCl, 1 mM MgCl2, 5 mM DTT, 0.05% BSA). Test compounds may be added to the reaction as described above. The SirT1 gene is cloned into a T7-promoter containing vector and transformed into BL21(DE3). After the 25 minute incubation with SIRT1, 10 μL of 10% formic acid is added to stop the reaction. Reactions are sealed and frozen for later mass spec analysis. Determination of the mass of the substrate peptide allows for precise determination of the degree of acetylation (i.e. starting material) as compared to deacetylated peptide (product).
A control for inhibition of sirtuin activity is conducted by adding 1 μL of 500 mM nicotinamide as a negative control at the start of the reaction (e.g., permits determination of maximum sirtuin inhibition). A control for activation of sirtuin activity is conducted using 10 nM of sirtuin protein, with 1 μL of DMSO in place of compound, to determine the amount of deacetylation of the substrate at a given timepoint within the linear range of the assay. This timepoint is the same as that used for test compounds and, within the linear range, the endpoint represents a change in velocity.
For the above assay, SIRT1 protein was expressed and purified as follows. The SirT1 gene was cloned into a T7-promoter containing vector and transformed into BL21(DE3). The protein was expressed by induction with 1 mM IPTG as an N-terminal His-tag fusion protein at 18° C. overnight and harvested at 30,000×g. Cells were lysed with lysozyme in lysis buffer (50 mM Tris-HCl, 2 mM Tris[2-carboxyethyl]phosphine (TCEP), 10 μM ZnCl2, 200 mM NaCl) and further treated with sonication for 10 min for complete lysis. The protein was purified over a Ni-NTA column (Amersham) and fractions containing pure protein were pooled, concentrated and run over a sizing column (Sephadex S200 26/60 global). The peak containing soluble protein was collected and run on an Ion-exchange column (MonoQ). Gradient elution (200 mM-500 mM NaCl) yielded pure protein. This protein was concentrated and dialyzed against dialysis buffer (20 mM Tris-HCl, 2 mM TCEP) overnight. The protein was aliquoted and frozen at −80° C. until further use.
Sirtuin modulating compounds that activated SIRT1 were identified using the assay described above and are shown below in Table 1. The EC1.5 values represent the concentration of test compounds that result in 150% activation of SIRT1. The EC1.5 values for the activating compounds are represented by A (EC1.5<10 μM), B (EC1-5 10-25 μM), C (EC1.5>25 μM). The percent maximum fold activation is represented by A (Fold activation >200%) or B (Fold Activation <200%).

SMILES	EC1.5 (concentration of test compound that results in 150% activation of SIRT1)	Emax [%]
Cc1ccccc1N1Cc2cccc(NC(=O)Cc3cccnc3)c2C1=O [Compound 114]	C (EC1.5>25 μM)	< 200
COc1ccc(N2Cc3cccc(NC(=O)Cc4cccnc4)c3C2=O)cc1 [Compound 118]	C (EC1.5>25 μM)	< 200
CC1(C(=O)Nc2cccc3c2C(=O)N(c2cccc(C(F)(F)F)c2)C3)CCCCC1 [Compound 105]	C (EC1.5>25 μM)	< 200
O=C(Cc1cccnc1)Nc1cccc2c1C(=O)N(c1cccc(-c3ccncc3)c1)C2 [Compound 104]	C (EC1.5>25 μM)	< 200
Cc1cccc(N2Cc3cccc(NC(=O)Cc4cccnc4)c3C2=O)c1 [Compound 115]	C (EC1.5>25 μM)	< 200

Second part, the molecule after the results:

EC1.5 (concentration of test compound that results in 150% activation of SIRT1)	Emax [%]	SMILES
C (EC1.5>25 μM)	< 200	O=C(Nc1cccc2c1C(=O)N(c1cccc(C(F)(F)F)c1)C2)c1cccnn1 [Compound 134]
C (EC1.5>25 μM)	< 200	COc1ccccc1N1Cc2cccc(NC(=O)Cc3cccnc3)c2C1=O [Compound 119]
C (EC1.5>25 μM)	< 200	O=C(Nc1cccc2c1C(=O)N(c1cccc(C(F)(F)F)c1)C2)c1cccc(N2CCCC2)n1 [Compound 136]
C (EC1.5>25 μM)	< 200	O=C(Nc1cccc2c1C(=O)N(c1cccc(C(F)(F)F)c1)C2)c1nccs1 [Compound 133]
